Reference: patent publication USRE46943E1, “Radioprotector compounds and methods” (PETER MACCALLUM CANCER INSTITUTE, priority 2010, dated 2018)
pIC50: −log10 of the molar value.

What follows are compounds tested on transformed human keratinocyte cell line (FEP 1811) (assay: Clonogenic survival cell culture assay for cytotoxicity). Conditions: Homo sapiens, Keratinocyte, light or radiation study; un-irradiated keratinocytes, one hour drug exposure, colonies counted after eight days; read-out: C50 (concentration of radioprotector that results in 50% clonogenic survival).
Type: cell-based
In short: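 Mid-log monolayers exposed to test drug for 1 h, then pronase-dispersed and plated; colonies counted after 8 days. For […], irradiation at 0.6 Gy per minute began 30 min after drug addition, with total drug exposure held at 60 min before plating for clonogenic survival.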

Row | SMILES | pIC50
1 | OC1CCN(c2ccc3nc(-c4ccc5nc(-c6cc7ccccc7cn6)[nH]c5c4)[nH]c3c2)CC1 [Example 23, 3-(5′-(5″-(4′″-Hydroxypiperidin-1′″-yl)benzimidazol-2″-yl)benzimidazol-2′-yl)isoquinoline] | 3.23
2 | CN1CCN(c2ccc3nc(-c4ccc5nc(-c6ccccn6)[nH]c5c4)[nH]c3c2)CC1 [Example 2, 2-(5′-(5″-(4′″-Methylpiperazin-1′″-yl)benzimidazol-2″-yl)benzimidazol-2′-yl)pyridine] | 4.00
3 | c1ccc(-c2nc3ccc(-c4nc5ccc(N6CCOCC6)cc5[nH]4)cc3[nH]2)nc1 [Example 19, 2-(5′-(5″-Morpholinobenzimidazol-2″-yl)benzimidazol-2′-yl)pyridine] | 3.82
4 | Cc1ccc(-c2nc3ccc(-c4nc5ccc(N6CCN(C)CC6)cc5[nH]4)cc3[nH]2)nc1 [Example 6, 5-Methyl-2-(5′-(5″-(4′″-methylpiperazin-1′″-yl)benzimidazol-2″-yl)benzimidazol-2′-yl)pyridine] | 4.23
